In patent US20050004092A1, “Penem derivatives and antimicrobial agent containing the same” (DAIICHI SUNTORY PHARMA CO., LTD., priority 1995, published 2005):
Converted amounts (≈) assume the structure as drawn.

How the values were obtained:
Experiment in all cases: antibacterial activity (MIC), standard in vitro dilution test
[1] = tested on: MRSA 31 high-resist. (IPM resist.); type: cell-based, Staphylococcus aureus; details: Staphylococcus aureus, MRSA, test bacterium strain 10^5 cfu/ml; read-out: MIC, MRSA 31 high-resist. (IPM resist.)
Excerpt: (§1) With respect to certain compounds (I) of the present invention, their general antibacterial activities and their antibacterial activities (MIC) against various methicillin-resistant strains of Staphylococcus aureus (methicillin-resistant Staphylococcus aureus: MRSA) were investigated. The results will be shown next.
(§2) Of the investigations, the general antibacterial activities were investigated by a standard in vitro dilution test.
(§3) As test bacteria, Staphylococcus aureus 209P JC-1, Escherichia coli NIHJ JC-2 and MRSAs were used.

[2] = tested on: MRSA 33 high-resist. (IPM resist.); type: cell-based, Staphylococcus aureus; details: Staphylococcus aureus, MRSA, test bacterium strain 10^5 cfu/ml; read-out: MIC, MRSA 33 high-resist. (IPM resist.)
Excerpt: as §1, §2, §3

[3] = tested on: Escherichia coli NIHJ JC-2 strain; type: cell-based; details: Escherichia coli, NIHJJC2, test bacterium strain 10^5 cfu/ml; read-out: MIC, Escherichia coli NIHJ JC-2 strain
Excerpt: as §1, §2, §3

[4] = tested on: Staphylococcus aureus 209P JC-1 strain; type: cell-based; details: Staphylococcus aureus, 209P, test bacterium strain 10^5 cfu/ml; read-out: MIC, Staphylococcus aureus 209P JC-1 strain
Excerpt: as §1, §2, §3

| Structure (SMILES) | MIC [1] [µg/mL] | MIC [2] [µg/mL] | MIC [3] [µg/mL] | MIC [4] [µg/mL] |
| --- | --- | --- | --- | --- |
| CC[C@H](O)[C@@H]1C(=O)N2C(C(=O)O)=C(SCc3ccccn3)S[C@H]12 [Ex. 129, (5R,6R)-6-((S)-1-hydroxypropyl)-2-(2-pyridylmethyl)thiopenem-3-carboxylic acid] | 6.25 (≈ 17.7 µM) | 6.25 (≈ 17.7 µM) | 6.25 (≈ 17.7 µM) | 0.2 (≈ 0.567 µM) |
| CC[C@H](O)[C@@H]1C(=O)N2C(C(=O)O)=C(SCCNC(C)=N)S[C@H]12 [Ex. 131, (5R,6R)-2-(2-(1-iminoethylamino)-ethyl)thio-6-((S)-1-hydroxypropyl)penem-3-carboxylic acid] | 6.25 (≈ 18.1 µM) | 6.25 (≈ 18.1 µM) | 0.78 (≈ 2.26 µM) | 0.1 (≈ 0.289 µM) |
| CC[C@H](O)[C@@H]1C(=O)N2C(C(=O)O)=C(SCCNC(=N)c3ccccc3)S[C@H]12 [Ex. 132, (5R,6R)-2-(2-(α-iminobenzyl)-aminoethyl)thio-6-((S)-1-hydroxypropyl)penem-3-carboxylic acid] | 6.25 (≈ 15.3 µM) | 6.25 (≈ 15.3 µM) | 1.56 (≈ 3.83 µM) | 0.1 (≈ 0.245 µM) |
| CC[C@H](O)[C@@H]1C(=O)N2C(C(=O)O)=C(SCCN)S[C@H]12 [Ex. 140, (5R,6R)-2-(2-aminoethyl)thio-6-((S)-1-hydroxypropyl)penem-3-carboxylic acid] | 6.25 (≈ 20.5 µM) | 6.25 (≈ 20.5 µM) | 0.73 (≈ 2.4 µM) | 0.1 (≈ 0.329 µM) |
| CC[C@H](O)[C@@H]1C(=O)N2C(C(=O)O)=C(SCCN3CCCC3)S[C@H]12 [Ex. 143, (5R,6R)-6-((S)-1-hydroxypropyl)-2-(2-(pyrrolidin-1-yl)ethyl)thiopenem-3-carboxylic acid] | 6.25 (≈ 17.4 µM) | 6.25 (≈ 17.4 µM) | 3.13 (≈ 8.73 µM) | 0.39 (≈ 1.09 µM) |
| CC[C@H](O)[C@@H]1C(=O)N2C(C(=O)O)=C(S[C@H]3CCN(c4ccncc4)C3)S[C@H]12 [Ex. 203] | 3.13 (≈ 7.68 µM) | 3.13 (≈ 7.68 µM) | 0.78 (≈ 1.91 µM) | 0.05 (≈ 0.123 µM) |

Other lines, results leading:

| MIC [1] [µg/mL] | MIC [2] [µg/mL] | MIC [3] [µg/mL] | MIC [4] [µg/mL] | Structure (SMILES) |
| --- | --- | --- | --- | --- |
| 6.25 (≈ 14.4 µM) | 6.25 (≈ 14.4 µM) | 12.5 (≈ 28.8 µM) | 0.2 (≈ 0.46 µM) | CC[C@H](O)[C@@H]1C(=O)N2C(C(=O)O)=C(SC3CCCN(Cc4ccccc4)C3)S[C@H]12 (some centres unmarked) [Ex. 125*^4] |
| 6.25 (≈ 15.3 µM) | 6.25 (≈ 15.3 µM) | 12.5 (≈ 30.6 µM) | 0.39 (≈ 0.955 µM) | CC[C@H](O)[C@@H]1C(=O)N2C(C(=O)O)=C(SCCC(=O)Nc3ccccc3)S[C@H]12 [Ex. 134, (5R,6R)-6-((S)-1-hydroxypropyl)-2-(2-phenylaminocarbonylethyl)thiopenem-3-carboxylic acid] |
| 6.25 (≈ 14.3 µM) | 6.25 (≈ 14.3 µM) | 0.78 (≈ 1.79 µM) | 0.1 (≈ 0.229 µM) | CC[C@H](O)[C@@H]1C(=O)N2C(C(=O)O)=C(SCCN(C)CC(=O)c3ccccc3)S[C@H]12 [Ex. 142, (5R,6R)-6-((S)-1-hydroxypropyl)-2-(2-(N-methyl-N-phenacylamino)ethyl)thiopenem-3-carboxylic acid] |
| 3.13 (≈ 8.83 µM) | 3.13 (≈ 8.83 µM) | 6.25 (≈ 17.6 µM) | 0.2 (≈ 0.564 µM) | CC[C@H](O)[C@@H]1C(=O)N2C(C(=O)O)=C(SCCn3cccc3)S[C@H]12 [Ex. 147, (5R,6R)-6-((S)-1-hydroxypropyl)-2-(2-(1-pyrrolyl)ethyl)thiopenem-3-carboxylic acid] |
| 6.25 (≈ 18.5 µM) | 6.25 (≈ 18.5 µM) | 25 (≈ 74.1 µM) | 0.1 (≈ 0.296 µM) | CC[C@H](O)[C@@H]1C(=O)N2C(C(=O)O)=C(Sc3ccccc3)S[C@H]12 [Ex. 151, (5R,6R)-6-((S)-1-hydroxypropyl)-2-phenylthiopenem-3-carboxylic acid] |
| 3.13 (≈ 7.44 µM) | 3.13 (≈ 7.44 µM) | 50 (≈ 119 µM) | 0.05 (≈ 0.119 µM) | CC[C@H](O)[C@@H]1C(=O)N2C(C(=O)O)=C(Sc3nc(-c4ccccc4)cs3)S[C@H]12 [Ex. 152, (5R,6R)-6-((S)-1-hydroxypropyl)-2-(4-phenylthiazol-2-yl)thiopenem-3-carboxylic acid] |
| 3.13 (≈ 7.68 µM) | 3.13 (≈ 7.68 µM) | 6.25 (≈ 15.3 µM) | 0.1 (≈ 0.245 µM) | CC[C@H](O)[C@@H]1C(=O)N2C(C(=O)O)=C(S[C@H]3CCN(c4ccccn4)C3)S[C@H]12 [Ex. 204] |
| 3.13 (≈ 8 µM) | 3.13 (≈ 8 µM) | 3.13 (≈ 8 µM) | 0.1 (≈ 0.255 µM) | CC[C@H](O)[C@@H]1C(=O)N2C(C(=O)O)=C(SCc3nc4ccccc4[nH]3)SC12 (some centres unmarked) [Ex. 205] |
